Results on one molecule are retold here after patent US11324709B2, “Fatty acid amides and uses thereof in the treatment of addiction disorder and addiction related conditions” (Yissum Research Development Company of The Hebrew …, priority 2017, dated 2022).

Read-outs that look alike come from different tables or passages of the source.

Data set [1] deals with ICR mice. The experiment in a line: Cannabinoid tetrad behavioral assessment. The format is in vivo, mouse. The note with it: i.p. On the procedure:
(§1) Male C57BL/6 mice (Charles River, Italy) weighing 18-20 g were used for the mild TBI Weight Drop (WD) model. Mice were housed three per cage under controlled illumination (12 h light/dark cycle; light on 6:00 A.M.) and standard environmental conditions (ambient temperature 20-22° C., humidity 55-60%) for at least 1 week before the beginning of experiments. Animal chow and tap water were available ad libitum. Male ICR mice (6-8 weeks old; Harlan, Indianapolis, Ind.) with a body mass of 27-32 g served as subjects in all in vivo pharmacology experiments. Mice were group-housed (four per cage) on a 12/12 light/dark cycle (lights on at 0600 h) and given food and water ad libitum. All animal protocols were approved by the Virginia Commonwealth University Institutional Animal Care and Use Committee, were in accordance with the National Institutes of Health Guide for the Care and Use of Laboratory Animals (Institute of Laboratory Animal Resources, 2011), and by the Animal Ethics Committee of The Second University of Naples, in compliance with Italian (D.L. 116/92) and European Commission (O.J. of E.C. L358/1 18/12/86) regulations on the protection of laboratory animals. All efforts were made to reduce both animal numbers and suffering during the experiments.
[^2H]8AEA, [^2H]52-AG, [^2H]4 PEA, [^2H]4 OEA, [^2H]8 N-arachidonoyldopamine (NADA), [^2H]8AraSer and [^2H]8AraGly were purchased from Cayman Chemicals (MI, USA). OlGly was synthetized in the Mechoulam laboratory and CP55,940 ((−)-cis-3-[2-hydroxy-4-(1,1-dimethylheptyl)phenyl]-trans-4-(3-hydroxypropyl)cyclohexanol) and morphine sulfate were generously provided by NIDA (Rockville, Md.). OlGly and CP55,940 were dissolved in a vehicle solution consisting of ethanol (5% of total volume), alkamuls-620 (Sanofi-Aventis, Bridgewater, N.J.) (5% of total volume), and saline (0.9% NaCl) (90% of total volume). Oleoyl glycine and CP55,940 were given via the intraperitoneal (i.p.) route of administration. (−)-Nicotine hydrogen tartrate [(−)-1-methyl-2-(3-pyridyl)pyrrolidine (+)-bitartrate] and mecamylamine HCl were purchased from Sigma-Aldrich Inc. (St. Louis, Mo., USA). Morphine sulfate [morphine hemi[sulfate pentahydrate]] Nicotine and mecamylamine (2 mg/kg) were dissolved in physiological saline and given via the subcutaneous (s.c.) route of administration in a volume of 10 ml/kg. For the nicotine CPP study, 0.5 mg/kg nicotine dose was used because this dose reliably produces significant CPP in ICR mouse (18). Morphine CPP was performed with 10 mg/kg (s.c.) as recently described (19). For nicotine withdrawal studies, 24 mg/kg/day nicotine or saline was continuously perfused for 14 days using s.c. osmotic minipumps (model 2000; Alzet Corporation, Cupertino, Calif.) that were implanted under isoflurane anesthesia. This prolonged nicotine administration regimen reliably produces significant withdrawal syndrome in the three behavioral paradigms used here.
Mice were acclimated to the test environment for at least 1 h prior to testing for tetrad components: spontaneous activity, catalepsy, antinociception, and hypothermia (7-9). In the locomotor studies, subjects were administered vehicle or drug and 5 min later were placed into clear acrylic boxes (approx. 44.5 cm×22.25 cm×20.0 cm) contained within sound-attenuating cabinets equipped with an LED light source and fans for general air circulation and creation of white noise. The distance traveled (cm) and time spent immobile (s) for each mouse were collected and recorded for 10 min using Fire-i™ digital cameras purchased from Unibrain (San Ramon, Calif., USA) and ANY-maze™ video tracking software purchased from Stoelting Company (Wood Dale, Ill., USA). Mice were assessed for baseline tail withdrawal latencies and body temperature, given an intraperitoneal (i.p.) injection of vehicle or drug (OlGly), and 30 min later assessed in the following order: catalepsy, tail withdrawal test, and body temperature. […]

Data set [2] has as its system ICR mice. The experiment in a line: Morphine CPP in mice. The format is in vivo, mouse. The settings on record: OlGly 30 mg/kg i.p., morphine 10 mg/kg s.c. for 3 days. The procedure:
as §1, with “the experiments. […]” for “the experiments.”

Data set [3] relates to Sprague-Dawley rats. The data set can be described thus: Establishment of naloxone precipitated MWD-induced conditioned place aversion (Experiment 2). The format is in vivo, rat. On the procedure:
Rats (n=22) received two 3-day conditioning cycles in order to attain a naloxone precipitated MWD-induced place avoidance. On Day 1, the floor opposite to the assigned drug floor was paired with a s.c. saline injection. Ten minutes after a saline injection, the rats were placed into the conditioning box with the assigned saline-paired floor for 20 minutes while their locomotion was tracked with Ethovision. On Day 2, the rats received a high dose of morphine (20 mg/kg) s.c., 24 h after the saline conditioning trial the previous day. After the injection, they were placed in an empty shoebox cage and monitored for signs of respiratory distress and stimulated when necessary until they recovered and were returned to the home cage. On Day 3, 24 h post morphine injections, the rats were injected with either VEH (n=12) or OlGly (n=12) 10 min prior to receiving an s.c. injection of naloxone. Ten min later they were placed into the conditioning box with the assigned naloxone-paired floor for 20 minutes while their locomotion was tracked using Ethovision. Four days later, all rats underwent a second 3-day conditioning cycle. Five days following the last naloxone trial, a 10 min drug-free test trial was performed. The test trial consisted of the same procedures as the pre-test trial, but rats were given a s.c. saline injection 10 min prior to the test. […]

The subject of data set [4] is Sprague-Dawley rats.
Another data set concerns nicotine-dependent mice. The note with it: cited from earlier work.
For the next data set, the system named is mice. The settings on record: cited from earlier work.
In data set [5] the test system is Sprague-Dawley rats. The experiment in a line: Potential of OlGly to produce a CPP or CPA (place conditioning, Experiment 1). The format is in vivo, rat. The note with it: 5 mg/kg ip. On the procedure:
Rats (n=12) received two conditioning trials with oleoyl glycine. On each trial they received intraperitoneal (ip) injections of 5 mg/kg oleoyl glycine or VEH (24 hr apart; counterbalanced order) 20 minutes prior to placement in the conditioning box lined with the grid or hole floor (counterbalanced) for 20 minutes.

Broadly, the melting point is the temperature, or range, at which the solid turns liquid. Consider `CCCCCCCC/C=C\CCCCCCCC(=O)NCC(=O)O` [OlGly, oleoyl glycine], for which the melting point was 93 to 94 °C (dec.). Also, the “cataleptic responses (bar test)” value in the data set with ICR mice [1] is reported as “did not elicit cataleptic responses”. Also, in the data set on ICR mice [1] (FIG. 5A), the “antinociception (tail immersion)” value is on record as “did not produce”. Moreover, in the data set with ICR mice [1] (FIG. 5B), the hypothermia result is on record as “did not produce”. For the same molecule, in the data set with ICR mice [1] (FIG. 5C), the “motor behavior: distance traveled” value was “did not produce”. In addition, in the data set on ICR mice [1] (FIG. 5D), the “motor behavior: speed” value is “did not produce”. Besides, in the data set on ICR mice [1] (FIG. 5E), the “motor behavior: immobility time” value is on record as “did not produce”. The “expression of morphine CPP” value in the data set with ICR mice [2] is “did not attenuate”. Also, the “establishment of the naloxone precipitated MWD-induced CPA” value in the data set with Sprague-Dawley rats [3] (5 mg/kg OlGly 10 min prior to naloxone, drug by floor interaction p=0.017) is listed as “significantly interfered”. Moreover, the “activity during the conditioning trials” value in the data set on Sprague-Dawley rats [3] (pretreatment with 5 mg/kg OlGly, naloxone conditioning trials) is on record as “did not modify activity”. Moreover, in the data set on Sprague-Dawley rats [4] (5 mg/kg OlGly i.p. 10 min prior to morphine 10 mg/kg s.c.), the “establishment of a morphine-induced place preference” value is “did not modify”. The “establishment of a morphine-induced place preference” value with Sprague-Dawley rats [4] (30 mg/kg OlGly i.p. 10 min prior to morphine 10 mg/kg s.c.) is “did not modify”. For the same molecule, in the data set on nicotine-dependent mice, the precipitated withdrawal responses entry is “reduced” and the “withdrawal induced place aversion” value is “reduced”. Also, in the data set with mice, the nicotine-induced place preference result is “interfered” and the “place preference or place aversion produced by OlGly itself” value was “neither a place preference nor a place aversion”. Moreover, in the data set with Sprague-Dawley rats [5], the “motoric effects during conditioning (activity measure) compared to VEH” value is given as “no motoric effects”. Besides, the “time spent on the oleoyl glycine paired floor (mean)” value in the data set on Sprague-Dawley rats [5] (10 min drug-free test trial, VEH paired floor 232.16 sec) was determined as 299.00 s. The “preference or aversion for the drug paired floor” value in the data set with Sprague-Dawley rats [5] (two conditioning trials, drug-free test trial) is recorded as “did not produce a significant preference or aversion”.
